Legend:
Test in all cases: KINOMEscan kinase binding assay
[1] = biological target: T1, 384 kinases from the human genome (Homo sapiens, UniProt Q52WX2); settings: kinase SBK1 (Entrez SBK1)
T1 construct: purchased Eurofin/DiscoverX
Method in brief: (§1)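 A panel of 384 human kinases was profiled by KINOMEscan binding in the presence of 10 µM compound. Kinase–ligand binding was given as percent of DMSO control, averaged from duplicates in a single run, with an S(10) selectivity score.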

[2] = biological target: T2, 384 kinases from the human genome (Homo sapiens, UniProt Q96NX5); settings: kinase CAMK1G (Entrez CAMK1G)
T2 construct: purchased Eurofin/DiscoverX
Method in brief: as §1

[3] = biological target: T3, 384 kinases from the human genome (Homo sapiens, UniProt P36896); settings: kinase ACVR1B (Entrez ACVR1B)
T3 construct: purchased Eurofin/DiscoverX
Method in brief: as §1

[4] = biological target: T4, 384 kinases from the human genome (Homo sapiens, UniProt Q6PHR2); settings: kinase ULK3 (Entrez ULK3)
T4 construct: purchased Eurofin/DiscoverX
Method in brief: as §1

[5] = biological target: T5, 384 kinases from the human genome (Homo sapiens, UniProt O00329); settings: kinase PIK3CD (Entrez PIK3CD)
T5 construct: purchased Eurofin/DiscoverX
Method in brief: as §1

[6] = biological target: T6, 384 kinases from the human genome (Homo sapiens, UniProt P54764); settings: kinase EPHA4 (Entrez EPHA4)
T6 construct: purchased Eurofin/DiscoverX
Method in brief: as §1

[7] = biological target: T7, 384 kinases from the human genome (Homo sapiens, UniProt Q16288); settings: kinase TRKC (Entrez NTRK3)
T7 construct: purchased Eurofin/DiscoverX
Method in brief: as §1

[8] = biological target: T8, 384 kinases from the human genome (Homo sapiens, UniProt P27361); settings: kinase ERK1 (Entrez MAPK3)
T8 construct: purchased Eurofin/DiscoverX
Method in brief: as §1

[9] = biological target: T9, 384 kinases from the human genome (Homo sapiens, UniProt Q96GD4); settings: kinase AURKB (Entrez AURKB)
T9 construct: purchased Eurofin/DiscoverX
Method in brief: as §1

[10] = biological target: T10, 384 kinases from the human genome (Homo sapiens, UniProt P30291); settings: kinase WEE1 (Entrez WEE1)
T10 construct: purchased Eurofin/DiscoverX
Method in brief: as §1

[11] = biological target: T11, 384 kinases from the human genome (Homo sapiens, UniProt P30530); settings: kinase AXL (Entrez AXL)
T11 construct: purchased Eurofin/DiscoverX
Method in brief: as §1

[12] = biological target: T12, 384 kinases from the human genome (Homo sapiens, UniProt P36507); settings: kinase MEK2 (Entrez MAP2K2)
T12 construct: purchased Eurofin/DiscoverX
Method in brief: as §1

[13] = biological target: T13, 384 kinases from the human genome (Homo sapiens, UniProt P78356); settings: kinase PIP5K2B (Entrez PIP4K2B)
T13 construct: purchased Eurofin/DiscoverX
Method in brief: as §1

[14] = biological target: T14, 384 kinases from the human genome (Homo sapiens, UniProt Q9UQB9); settings: kinase AURKC (Entrez AURKC)
T14 construct: purchased Eurofin/DiscoverX
Method in brief: as §1

[15] = biological target: T15, 384 kinases from the human genome (Homo sapiens, UniProt P15056)
T15 construct: purchased Eurofin/DiscoverX
Method in brief: as §1

[16] = biological target: T16, 384 kinases from the human genome (Homo sapiens, UniProt P78362); settings: kinase SRPK2 (Entrez SRPK2)
T16 construct: purchased Eurofin/DiscoverX
Method in brief: as §1

[17] = biological target: T17, 384 kinases from the human genome (Homo sapiens, UniProt P07948); settings: kinase LYN (Entrez LYN)
T17 construct: purchased Eurofin/DiscoverX
Method in brief: as §1

[18] = biological target: T18, 384 kinases from the human genome (Homo sapiens, UniProt Q16832); settings: kinase DDR2 (Entrez DDR2)
T18 construct: purchased Eurofin/DiscoverX
Method in brief: as §1

[19] = biological target: T19, 384 kinases from the human genome (Homo sapiens, UniProt O15197); settings: kinase EPHB6 (Entrez EPHB6)
T19 construct: purchased Eurofin/DiscoverX
Method in brief: as §1

[20] = biological target: T20, 384 kinases from the human genome (Homo sapiens, UniProt O75716); settings: kinase STK16 (Entrez STK16)
T20 construct: purchased Eurofin/DiscoverX
Method in brief: as §1

[21] = biological target: T21, 384 kinases from the human genome (Homo sapiens, UniProt Q96PN8); settings: kinase TSSK3 (Entrez TSSK3)
T21 construct: purchased Eurofin/DiscoverX
Method in brief: as §1

[22] = biological target: T22, 384 kinases from the human genome (Homo sapiens, UniProt P31749); settings: kinase AKT1 (Entrez AKT1)
T22 construct: purchased Eurofin/DiscoverX
Method in brief: as §1

[23] = biological target: T23, 384 kinases from the human genome (Homo sapiens, UniProt P06241); settings: kinase FYN (Entrez FYN)
T23 construct: purchased Eurofin/DiscoverX
Method in brief: as §1

[24] = biological target: T24, 384 kinases from the human genome (Homo sapiens, UniProt O43283); settings: kinase LZK (Entrez MAP3K13)
T24 construct: purchased Eurofin/DiscoverX
Method in brief: as §1

[25] = biological target: T25, 384 kinases from the human genome (Homo sapiens, UniProt P27037); settings: kinase ACVR2A (Entrez ACVR2A)
T25 construct: purchased Eurofin/DiscoverX
Method in brief: as §1

[26] = biological target: T26, 384 kinases from the human genome (Homo sapiens, UniProt Q86Y07); settings: kinase VRK2 (Entrez VRK2)
T26 construct: purchased Eurofin/DiscoverX
Method in brief: as §1

T15 sequence (P15056 whole entry): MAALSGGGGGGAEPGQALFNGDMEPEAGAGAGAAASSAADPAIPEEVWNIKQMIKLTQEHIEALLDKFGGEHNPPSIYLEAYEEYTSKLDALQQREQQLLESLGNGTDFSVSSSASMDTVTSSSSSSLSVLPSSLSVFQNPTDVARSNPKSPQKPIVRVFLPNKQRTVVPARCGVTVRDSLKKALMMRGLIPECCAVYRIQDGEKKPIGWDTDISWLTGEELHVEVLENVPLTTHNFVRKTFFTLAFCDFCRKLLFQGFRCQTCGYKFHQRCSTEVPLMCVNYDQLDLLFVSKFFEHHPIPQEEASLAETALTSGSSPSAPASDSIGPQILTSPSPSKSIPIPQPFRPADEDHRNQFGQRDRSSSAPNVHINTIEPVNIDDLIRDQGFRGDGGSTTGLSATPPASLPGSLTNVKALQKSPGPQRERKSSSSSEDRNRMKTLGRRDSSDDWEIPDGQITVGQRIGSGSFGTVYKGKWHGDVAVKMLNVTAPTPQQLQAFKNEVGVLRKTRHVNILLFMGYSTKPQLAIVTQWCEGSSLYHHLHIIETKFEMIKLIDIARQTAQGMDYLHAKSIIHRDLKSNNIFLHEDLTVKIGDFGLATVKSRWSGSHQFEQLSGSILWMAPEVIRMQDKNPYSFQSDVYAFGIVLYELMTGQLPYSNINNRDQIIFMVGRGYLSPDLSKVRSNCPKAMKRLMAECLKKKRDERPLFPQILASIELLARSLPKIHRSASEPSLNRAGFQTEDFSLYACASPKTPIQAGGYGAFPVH
T1 sequence (Q52WX2 whole entry): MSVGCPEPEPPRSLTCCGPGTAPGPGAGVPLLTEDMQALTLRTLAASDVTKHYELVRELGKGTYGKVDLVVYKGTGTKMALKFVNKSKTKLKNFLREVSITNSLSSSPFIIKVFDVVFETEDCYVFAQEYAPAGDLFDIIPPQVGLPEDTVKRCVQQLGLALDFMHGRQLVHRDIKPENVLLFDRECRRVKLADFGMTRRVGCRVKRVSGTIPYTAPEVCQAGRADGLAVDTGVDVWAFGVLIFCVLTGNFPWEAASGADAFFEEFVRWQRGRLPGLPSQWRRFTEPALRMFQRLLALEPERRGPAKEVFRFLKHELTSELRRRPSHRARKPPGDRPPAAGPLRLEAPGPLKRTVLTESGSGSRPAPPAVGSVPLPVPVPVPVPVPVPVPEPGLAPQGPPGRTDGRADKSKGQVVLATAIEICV
T6 sequence (P54764 20-986): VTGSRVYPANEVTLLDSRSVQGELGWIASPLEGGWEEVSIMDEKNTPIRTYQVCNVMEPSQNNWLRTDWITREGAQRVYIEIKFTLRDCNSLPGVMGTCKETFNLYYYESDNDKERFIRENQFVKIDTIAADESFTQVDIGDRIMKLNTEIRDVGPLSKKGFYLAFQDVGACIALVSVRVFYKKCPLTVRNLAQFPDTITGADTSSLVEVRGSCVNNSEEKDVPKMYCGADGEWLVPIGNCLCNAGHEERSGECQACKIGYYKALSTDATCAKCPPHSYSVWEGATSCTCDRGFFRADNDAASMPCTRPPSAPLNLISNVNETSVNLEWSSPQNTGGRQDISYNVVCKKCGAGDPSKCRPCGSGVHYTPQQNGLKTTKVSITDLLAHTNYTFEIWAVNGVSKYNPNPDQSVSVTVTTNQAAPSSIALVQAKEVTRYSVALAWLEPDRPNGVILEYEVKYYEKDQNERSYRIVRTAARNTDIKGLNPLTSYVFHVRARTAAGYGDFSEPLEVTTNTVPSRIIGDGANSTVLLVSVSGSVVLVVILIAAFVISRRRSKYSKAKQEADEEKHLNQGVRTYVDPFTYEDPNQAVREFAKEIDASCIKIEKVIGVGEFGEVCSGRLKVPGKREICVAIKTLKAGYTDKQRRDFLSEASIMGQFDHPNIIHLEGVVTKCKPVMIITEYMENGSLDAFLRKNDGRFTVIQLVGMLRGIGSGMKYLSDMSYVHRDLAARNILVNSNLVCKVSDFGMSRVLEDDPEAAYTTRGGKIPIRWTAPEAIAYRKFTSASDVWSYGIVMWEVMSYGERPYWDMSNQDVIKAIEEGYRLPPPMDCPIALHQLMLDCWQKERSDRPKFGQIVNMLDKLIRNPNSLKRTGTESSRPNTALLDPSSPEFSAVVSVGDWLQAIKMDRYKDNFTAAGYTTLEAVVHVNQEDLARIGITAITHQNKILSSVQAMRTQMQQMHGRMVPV
T25 sequence (P27037 20-513): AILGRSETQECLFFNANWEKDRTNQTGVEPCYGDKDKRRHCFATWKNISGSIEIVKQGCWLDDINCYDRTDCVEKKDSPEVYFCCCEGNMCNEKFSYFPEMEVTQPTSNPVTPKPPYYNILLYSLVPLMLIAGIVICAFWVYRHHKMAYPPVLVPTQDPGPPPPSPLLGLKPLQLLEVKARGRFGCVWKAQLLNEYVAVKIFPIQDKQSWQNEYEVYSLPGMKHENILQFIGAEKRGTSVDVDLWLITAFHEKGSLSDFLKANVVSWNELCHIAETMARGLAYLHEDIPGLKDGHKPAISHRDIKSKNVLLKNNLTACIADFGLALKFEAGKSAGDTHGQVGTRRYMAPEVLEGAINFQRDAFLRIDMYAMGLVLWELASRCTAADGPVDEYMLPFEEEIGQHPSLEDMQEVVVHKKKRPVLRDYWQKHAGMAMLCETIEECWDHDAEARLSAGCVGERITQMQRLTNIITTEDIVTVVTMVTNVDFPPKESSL
T19 sequence (O15197 32-1021): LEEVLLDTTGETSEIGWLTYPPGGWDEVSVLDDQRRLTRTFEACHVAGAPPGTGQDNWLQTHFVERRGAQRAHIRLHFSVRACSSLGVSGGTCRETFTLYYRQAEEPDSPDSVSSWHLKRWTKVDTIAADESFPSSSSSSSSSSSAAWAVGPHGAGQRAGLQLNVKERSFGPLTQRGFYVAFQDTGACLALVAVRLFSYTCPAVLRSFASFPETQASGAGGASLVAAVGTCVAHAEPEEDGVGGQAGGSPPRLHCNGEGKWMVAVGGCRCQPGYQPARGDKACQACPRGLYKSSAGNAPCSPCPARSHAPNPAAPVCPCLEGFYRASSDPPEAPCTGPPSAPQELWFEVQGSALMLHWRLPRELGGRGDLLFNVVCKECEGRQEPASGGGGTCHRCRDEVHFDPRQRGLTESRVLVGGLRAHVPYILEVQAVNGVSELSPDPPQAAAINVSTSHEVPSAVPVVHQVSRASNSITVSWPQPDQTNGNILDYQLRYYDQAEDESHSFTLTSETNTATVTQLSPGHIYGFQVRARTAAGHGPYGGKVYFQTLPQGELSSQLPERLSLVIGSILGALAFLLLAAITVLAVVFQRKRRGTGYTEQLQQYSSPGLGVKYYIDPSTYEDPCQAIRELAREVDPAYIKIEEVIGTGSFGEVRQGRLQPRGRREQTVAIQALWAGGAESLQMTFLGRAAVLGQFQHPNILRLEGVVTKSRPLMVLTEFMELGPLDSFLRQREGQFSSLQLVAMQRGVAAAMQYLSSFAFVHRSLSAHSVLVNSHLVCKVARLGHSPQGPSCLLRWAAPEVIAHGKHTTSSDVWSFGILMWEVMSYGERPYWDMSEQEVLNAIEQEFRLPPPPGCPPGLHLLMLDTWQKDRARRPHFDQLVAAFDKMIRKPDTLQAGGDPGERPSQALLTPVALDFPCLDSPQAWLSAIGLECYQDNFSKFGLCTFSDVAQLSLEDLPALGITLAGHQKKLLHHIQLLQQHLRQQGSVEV
T9 sequence (Q96GD4 whole entry): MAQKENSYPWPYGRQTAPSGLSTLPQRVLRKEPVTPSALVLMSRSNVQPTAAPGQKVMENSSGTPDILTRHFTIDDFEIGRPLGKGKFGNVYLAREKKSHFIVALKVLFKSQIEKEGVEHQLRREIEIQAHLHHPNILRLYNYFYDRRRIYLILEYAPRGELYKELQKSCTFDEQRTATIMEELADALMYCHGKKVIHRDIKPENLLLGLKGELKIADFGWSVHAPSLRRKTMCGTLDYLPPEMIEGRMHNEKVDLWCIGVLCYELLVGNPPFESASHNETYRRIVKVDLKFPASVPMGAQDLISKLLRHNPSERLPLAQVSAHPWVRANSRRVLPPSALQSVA
T10 sequence (P30291 whole entry): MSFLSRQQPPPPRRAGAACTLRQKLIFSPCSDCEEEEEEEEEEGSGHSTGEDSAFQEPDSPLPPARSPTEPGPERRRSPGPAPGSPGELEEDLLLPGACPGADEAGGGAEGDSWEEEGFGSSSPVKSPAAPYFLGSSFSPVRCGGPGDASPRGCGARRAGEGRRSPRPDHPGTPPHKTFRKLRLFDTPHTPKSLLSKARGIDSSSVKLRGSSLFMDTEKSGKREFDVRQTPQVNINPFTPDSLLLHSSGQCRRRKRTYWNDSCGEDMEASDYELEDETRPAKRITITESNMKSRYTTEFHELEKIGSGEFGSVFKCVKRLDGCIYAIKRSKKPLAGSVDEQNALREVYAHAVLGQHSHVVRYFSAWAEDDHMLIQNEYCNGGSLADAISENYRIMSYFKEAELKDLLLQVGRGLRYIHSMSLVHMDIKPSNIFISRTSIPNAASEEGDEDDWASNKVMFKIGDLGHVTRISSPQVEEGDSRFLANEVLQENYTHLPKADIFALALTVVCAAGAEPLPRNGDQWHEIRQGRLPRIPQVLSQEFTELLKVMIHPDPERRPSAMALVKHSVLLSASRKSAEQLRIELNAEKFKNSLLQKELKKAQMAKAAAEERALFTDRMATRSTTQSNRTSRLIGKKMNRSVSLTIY
T20 sequence (O75716 whole entry): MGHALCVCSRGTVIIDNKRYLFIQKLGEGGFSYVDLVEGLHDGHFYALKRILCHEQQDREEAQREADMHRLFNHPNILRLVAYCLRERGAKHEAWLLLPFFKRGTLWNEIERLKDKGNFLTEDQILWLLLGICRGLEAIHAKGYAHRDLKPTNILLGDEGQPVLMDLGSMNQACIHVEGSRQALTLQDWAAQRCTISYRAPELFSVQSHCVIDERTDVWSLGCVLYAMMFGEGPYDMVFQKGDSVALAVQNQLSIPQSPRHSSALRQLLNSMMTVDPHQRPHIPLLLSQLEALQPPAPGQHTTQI

SMILES: CC(C)C(=O)N1CCN(c2ccc(NC(=O)c3cc4ccccc4o3)cc2Cl)CC1 [Compound 21]
- Percent Control [1]: 100%
- Percent Control [2]: 100%
- Percent Control [3]: 85%
- Percent Control [4]: 87%
- Percent Control [5]: 100%
- Percent Control [6]: 95%
- Percent Control [7]: 24%
- Percent Control [8]: 93%
- Percent Control [9]: 83%
- Percent Control [10]: 98%
- Percent Control [11]: 69%
- Percent Control [12]: 76%
- Percent Control [13]: 83%
- Percent Control [14]: 87%
- binding to BRAF ([15]; 10 µM of 21): failed to bind
- Percent Control ([15]; kinase BRAF (Entrez BRAF)): 93%
- Percent Control [16]: 80%
- Percent Control [17]: 100%
- Percent Control [18]: 100%
- Percent Control [19]: 98%
- Percent Control [20]: 100%
- Percent Control [21]: 100%
- Percent Control [22]: 97%
- Percent Control [23]: 67%
- Percent Control [24]: 100%
- Percent Control [25]: 100%
- Percent Control [26]: 88%
